Structures can show the parent of a compound that is named as a salt.
How the values were obtained:
[1] = test system: RS4;11 leukaemia tumour line; assay: In vitro cytotoxicity (Microculture Tetrazolium Assay, 48 hours); type: cell-based; conditions: cytotoxicity for RS4;11 cells, MTT
Procedure: The cytotoxicity studies were carried out on the RS4;11 leukaemia tumour line.
The cells are distributed onto microplates and exposed to the test compounds for 48 hours.

Bcl-2 protein = Bcl-2 protein (Homo sapiens (Human), UniProt P10415); assay: Inhibition of Bcl-2 by the fluorescence polarisation technique; type: binding; conditions: Bcl-2 inhibition, fluorescence polarisation test; read-out: IC50 (nM) Bcl-2 FP
Procedure: The fluorescence polarisation tests were carried out on microplates (384 wells). […] After incubation for 2 hours, the fluorescence polarisation is measured.

caspase 3 = assay: Induction of caspase activity in vivo (DEVDase activity in tumour lysates, RS4;11 xenograft); parameters: species or system mice (SCID strain); conditions: oral treatment 50 mg/kg, RS4;11 xenograft in SCID mice, 16 hours after treatment; for fold induction at 50 mg/kg: Mus musculus, read-out: Activation factor (versus control), DEVDase activity in the tumours
Procedure: The ability of the compounds of the invention to activate caspase 3 is evaluated in a xenograft model of RS4;11 leukaemia cells.
1×10^7 RS4;11 cells are grafted sub-cutaneously into immunosuppressed mice (SCID strain). 25 to 30 days after the graft, the animals are treated orally with the various compounds. Sixteen hours after treatment, the tumour masses are recovered and lysed, and the caspase 3 activity is measured in the tumour lysates.
This enzymatic measurement is carried out by assaying the appearance of a fluorigenic cleavage product (DEVDase activity, Promega). It is expressed in the form of an activation factor corresponding to the ratio between the two caspase activities: the activity for the treated mice divided by the activity for the control mice.

Bcl-2 protein, sequence (P10415 whole entry): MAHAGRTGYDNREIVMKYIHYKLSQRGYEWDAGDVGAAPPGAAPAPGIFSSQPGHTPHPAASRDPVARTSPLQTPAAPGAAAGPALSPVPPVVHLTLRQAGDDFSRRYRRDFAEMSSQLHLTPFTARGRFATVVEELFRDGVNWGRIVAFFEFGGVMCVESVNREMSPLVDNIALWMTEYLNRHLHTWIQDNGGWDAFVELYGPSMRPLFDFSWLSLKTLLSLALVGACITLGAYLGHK

| SMILES | IC50 [1] [nM] | IC50 (Bcl-2 protein) [nM] | IC50 ([1]; Homo sapiens) [nM] | also measured |
| --- | --- | --- | --- | --- |
| Cn1ccc2ccc(N(C(=O)c3cc(-c4cc(Cl)ccc4C(=O)N4Cc5ccccc5C[C@H]4CN4CCOCC4)n4c3CCCCC4)c3ccc(O)cc3)cc21 [Example 83, 3-{5-Chloro-2-[((3S)-3-(4-morpholinylmethyl)-3,4-dihydro-2(1H)-isoquinolinyl)carhonyl]phenyl}-N-(4-hydroxyphenyl)-N-(1-methyl-1H-indol-6-yl)-6,7,8,9-tetrahydro-5H-pyrrolo[1,2-a]azepine-1-carboxamide hydrochloride] | 41.2 | – | – | – |
| O=C(c1cc(-c2cc3c(cc2C(=O)N2Cc4ccccc4C[C@H]2CN2CCOCC2)OCO3)n2ccccc12)N(c1ccccc1)c1ccc(O)cc1 [Example 58, N-(4-Hydroxyphenyl)-3-{6-[((3S)-3-(4-morpholinylmethyl)-3,4-dihydro-2(1H)-isoquinolinyl)carbonyl]-1,3-benzodioxol-5-yl}-N-phenyl-1-indolizine carboxamide hydrochloride] | – | 22 | 40.1 | fold induction at 50 mg/kg (caspase 3): 23.3 |
| CCOc1ccc(C(=O)N2Cc3ccccc3C[C@H]2CN2CCOCC2)c(-c2cc(C(=O)N(c3ccc(O)cc3)c3ccc4c(ccn4C)c3)c3n2CCCC3)c1 [Example 36, 3-{5-Ethoxy-2-[((3S)-3-(4-morpholinylmethyl)-3,4-dihydro-2(1H)-isoquinolinyl)carbonyl]phenyl}-N-(4-hydroxyphenyl)-N-(1-methyl-1H-indol-5-yl)-5,6,7,8-tetrahydro-1-indolizine carboxamide hydrochloride] | – | – | 135 | – |
| O=C(c1cc(-c2cc3c(cc2C(=O)N2Cc4ccccc4C[C@H]2CN2CCOCC2)OCO3)n2c1CCCC2)N(c1ccc(O)cc1)c1ccc(O)cc1 [Example 6, N,N-bis(4-Hydroxyphenyl)-3-{6-[((3S)-3-(4-morpholinylmethyl)-3,4-dihydro-2(1H)-isoquinolinyl)carbonyl]-1,3-benzodioxol-5-yl}-5,6,7,8-tetrahydra-1-indolizine carboxamide hydrochloride] | 30 | – | – | – |
| Cl.Cn1ccc2cc(N(C(=O)c3cc(-c4cc(Cl)ccc4C(=O)N4Cc5ccccc5C[C@H]4CN4CCOCC4)n4ccccc34)c3ccc(O)cc3)ccc21 [Example 67, 3-{5-Chloro-2-[((3S)-3-(4-morpholinylmethyl)-3,4-dihydro-2(1H)-isoquinolinyl)carhonyl]phenyl}-N-(4-hydroxyphenyl)-N-(1-methyl-1H-indol-5-yl)-1-indolizine carboxamide hydrochloride] | 17.7 | – | – | Activation factor (versus control), DEVDase activity in the tumours (caspase 3): 18.9 (50 mg/kg) |
| Cn1ccc2cc(N(C(=O)c3cc(-c4cc5c(cc4C(=O)N4Cc6ccccc6C[C@H]4CN4CCOCC4)OCO5)n4c3CCC4)c3ccc(O)cc3)ccc21 [Example 96, N-(4-Hydroxyphenyl)-N-(1-meth-1H-indol-5-yl)-5-(6-{[(3S)-3-(morpholin-4-ylmethyl)-3,4-dihydroisoquinolin-2(1H)-yl]carbonyl}-1,3-benzodioxol-5-yl)-2,3-dihydro-1H-pyrrolizine-7-carboxamide hydrochloride] | 58.8 | – | – | – |
| O=C(c1cc(-c2cc3c(cc2C(=O)N2Cc4ccccc4C[C@H]2CN2CCOCC2)OCO3)n2c1CCCC2)N(c1ccc(O)cc1)c1ccc(Cl)cc1 [Example 3, N-(4-Chlorophenyl)-N-(4-hydroxyphenyl)-3-{6-[((3S)-3-(4-morpholinylmethyl)-3,4-dihydro-2(1H)-isoquinolinyl)carbonyl]-1,3-benzodioxol-5-yl}-5,6,7,8-tetrahydro-1-indolizine carboxamide hydrochloride] | – | 20 | 44.7 | fold induction at 50 mg/kg (caspase 3): 5.7 |
| CN1CCc2cc(N(C(=O)c3cc(-c4cc(Cl)ccc4C(=O)N4Cc5ccccc5C[C@H]4CN4CCOCC4)c4n3CCCC4)c3ccc(O)cc3)ccc21 [Example 43, 1-{5-Chloro-2-[((3S)-3-(4-morpholinylmethyl)-3,4-dihydro-2(1H)-isoquinolinyl)carbonyl]phenyl}-N-(4-hydroxyphenyl)-N-(1-methyl-2,3-dihydro-1H-indol-5-yl)-5,6,7,8-tetrahydro-3-indolizine carboxamide hydrochloride] | – | 110 | – | – |
| Cn1ccc2cc(N(C(=O)c3cc(-c4cc5c(cc4C(=O)N4Cc6ccccc6C[C@H]4CN4CCOCC4)OCO5)n4c3CN(C(=O)OC(C)(C)C)CC4)c3ccc(O)cc3)ccc21 [Example 72] | 270 | 220 | – | – |

Reference: patent US9603854B2, “Indolizine compounds, a process for their preparation and pharmaceutical compositions containing them” (LES LABORATOIRES SERVIER, priority 2012, dated 2017)
